The record followed here is patent US20020028938A1, “Prostaglandin endoperoxide H synthase biosynthesis inhibitors” (priority 1997, published 2002).

As a reminder, the IC50 is the concentration needed to halve the response being measured. As usually defined, the melting point is the temperature of the solid-liquid transition.

For series [1], the target named is T1, recombinant human Cox-2 (r-hu Cox-2) (Homo sapiens, UniProt P35354).
T1 construct: made in house; host or cells: baculovirus/Sf9 insect cells (microsomes)
T1 sequence (P35354 18-604): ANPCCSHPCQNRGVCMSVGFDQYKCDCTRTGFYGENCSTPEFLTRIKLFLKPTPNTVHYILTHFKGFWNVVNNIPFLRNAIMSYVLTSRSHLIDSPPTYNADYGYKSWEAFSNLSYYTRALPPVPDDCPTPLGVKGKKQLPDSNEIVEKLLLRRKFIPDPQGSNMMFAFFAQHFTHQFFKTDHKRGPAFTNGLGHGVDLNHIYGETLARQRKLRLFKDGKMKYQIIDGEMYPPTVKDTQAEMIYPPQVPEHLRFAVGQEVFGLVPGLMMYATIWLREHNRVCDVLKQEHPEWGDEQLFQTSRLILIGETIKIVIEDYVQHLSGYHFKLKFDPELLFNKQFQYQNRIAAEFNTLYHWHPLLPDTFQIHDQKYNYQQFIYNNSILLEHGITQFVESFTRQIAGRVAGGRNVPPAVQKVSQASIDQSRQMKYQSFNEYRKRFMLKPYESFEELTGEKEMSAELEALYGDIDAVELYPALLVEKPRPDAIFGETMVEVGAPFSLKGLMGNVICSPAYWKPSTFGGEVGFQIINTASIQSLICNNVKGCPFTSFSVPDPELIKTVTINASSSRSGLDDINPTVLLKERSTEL
The experiment in a line: Recombinant human PGHS-2 enzyme assay (RHUCX2). It is filed as biochemical. The following applies: for IC50: read-out: RHUCX2 IC50 (parenthetical value). The gist of the method:
(§1)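 Recombinant enzyme reaction ran 2.5 minutes at room temperature, then was quenched with HCl and neutralized with NaOH. PGE2 formed with and without drug was quantified by EIA against standards in the same milieu. Percent inhibition versus control mean; IC50 by linear regression.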

Series [2] has as its target T2, recombinant human Cox-1 (r-hu Cox1) (Homo sapiens, UniProt P23219).
T2 construct: made in house; host or cells: baculovirus/Sf9 insect cells (microsomes)
The experiment in a line: Recombinant human PGHS-1 enzyme assay (RHUCX1). Type of series: biochemical. The note with it: for inhibition at 100 µM: read-out: RHUCX1 % Inh. at Dose. The gist of the method:
as §1

Series [3] has as its target T3, human amnionic whole cell cyclooxygenase-2 (WISH cells) (Homo sapiens, UniProt P35354).
T3 construct: endogenous in cells; host or cells: human amnionic WISH cells, induced with IL-1beta
T3 sequence (P35354 18-604): T1 sequence (P35354 18-604)
The experiment in a line: IL-1β induced PGE2 production in WISH cells. Type of series: cell-based. The note with it: for IC50: read-out: Wish IC50 (parenthetical value). The method, then:
EIA reagents for prostaglandin determination were purchased from Perseptive Diagnostics, (Cambridge, Mass.). Prostaglandin E2 (PGE2) levels in lavage fluids were determined after the samples were dried under nitrogen and reconstituted with assay buffer. PGE2 levels in enzyme assays or cell culture media were measured against standards prepared in the same milieu. The immunoassays were conducted as recommended by the manufacturer. The EIA was conducted in 96 well microtiter plates (Nunc Roskilde, Denmark) and optical density was measured using a microplate reader (Vmax, Molecular Devices Corp., Menlo Park, Calif.).
Human amnionic WISH cells were grown to 80% confluence in 48 well plates. Following removal of the growth medium and two washings with Geys Balanced Salt Solutn, 5 ng IL-1β /ml (UBI, Lake Placid, N.Y.) was added to the cells with or without test compound in DMSO (0.01% v/v) in Neuman-Tytell Serumless Medium (GIBCO, Grand Island, N.Y.).

Series [4] has as its target T4, Human Whole Platelet Cyclooxygenase-1 (Homo sapiens, UniProt P23219).
T4 construct: from tissue; host or cells: human blood: isolated platelets (A4) or heparinised whole blood (A9)
The experiment in a line: Human Whole Platelet Cyclooxygenase-1 assay (HWPX). It is filed as cell-based. The following applies: for IC50: read-out: HWPX IC50 (parenthetical value). As for the experimental part:
Blood from normal healthy volunteers is collected into tubes containing ACD (acid citrate dextrose) as the anticoagulant. This blood is centrifuged at 175×g to prepare platelet rich plasma. The platelet rich plasma is then centrifuged at 100×g to pellet the white blood cells, leaving the platelets in the supernatant. The supernatant is layered on a cushion of 0.7 mL of 10% bovine serum albumin in Tyrodes solution (Gibco; Grand Island, N.Y.) and then centrifuged at 1000×g. The resulting supernatant from this centrifuigation is then removed and 11 mL of Tyrodes solution is added to the remaining pellet of platelets. The platelets are then aliquoted at 120 μl into a 96 well plate. Experimental compounds are added and allowed to pre-incubate for 10 minutes. At the end of this pre-incubation period, the calcium ionophore A23187 is added to a final concentration of 8.8 μM and the incubation is continued for ten minutes. The reaction is stopped by adding cold 6 mM EDTA, the incubation mixture is centrifuged at 220×g, and the supernatants are then analyzed for thromboxane using a commercial kit from Cayman Chemical (Ann Arbor, Mich.

Setting [5] is: read-out: HWPX % Inhib. at Dose.
Where [6] appears, read: read-out: RHUCX2 % Inh. at Dose.

T4 sequence (P23219 24-599): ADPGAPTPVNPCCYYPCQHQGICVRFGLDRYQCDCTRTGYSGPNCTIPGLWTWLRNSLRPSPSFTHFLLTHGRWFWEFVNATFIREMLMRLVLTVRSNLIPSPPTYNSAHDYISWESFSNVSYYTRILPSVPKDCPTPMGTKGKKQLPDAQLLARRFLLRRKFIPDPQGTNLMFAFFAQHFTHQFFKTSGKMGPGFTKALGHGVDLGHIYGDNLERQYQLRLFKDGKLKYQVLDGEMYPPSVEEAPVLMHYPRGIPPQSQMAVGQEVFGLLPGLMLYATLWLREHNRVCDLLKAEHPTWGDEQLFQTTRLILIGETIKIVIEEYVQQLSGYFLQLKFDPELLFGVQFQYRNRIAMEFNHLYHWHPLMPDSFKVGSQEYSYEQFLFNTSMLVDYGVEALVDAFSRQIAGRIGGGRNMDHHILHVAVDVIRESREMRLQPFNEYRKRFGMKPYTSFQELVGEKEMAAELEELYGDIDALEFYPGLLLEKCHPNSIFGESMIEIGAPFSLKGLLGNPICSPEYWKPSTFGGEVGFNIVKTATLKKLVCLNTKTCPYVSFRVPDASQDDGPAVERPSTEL
T2 sequence (P23219 24-599): as above

Turning to `CC(/C=C/Cl)n1ncc(-c2ccc(S(N)(=O)=O)cc2)c(-c2ccc(F)cc2)c1=O` (stereo not shown) [Example 140, 2-(3-Chloro-1-methyl-2E-propenyl)-4-(4-fluorophenyl)-5-[4-(aminosulfonyl)phenyl]-3(2H)-pyridazinone], the half-maximal inhibitory concentration (IC50) came to 22 nM in series [1], 3060 nM in series [2] (read-out: RHUCX1 IC50 (parenthetical value)), 10 nM in series [3] and 773 nM in series [4].

In the case of `CS(=O)(=O)c1ccc(-c2cnn(Cc3ccccc3)c(=O)c2Oc2ccc(F)cc2)cc1` [Example 75], the melting point was 188 to 190 °C. Moreover, the inhibition at 3 µM in series [4] (3 μM, read-out: HWPX % Inhib. at Dose) came to 0%. In addition, the inhibition at 10 µM in series [4] (setting [5]) turned out to be 84%.

Turning to `Cc1cc(-n2ncc(-c3ccc(S(C)(=O)=O)cc3)c(-c3ccc(F)cc3)c2=O)ccc1F` [Example 189, 2-(4-Fluoro-3-methylphenyl)-4-(4-fluorophenyl)-5-[4-(methylsulfonyl)phenyl]-3(2H)-pyridazinone], the melting point lay within 168 to 170 °C. Further, the half-inhibitory concentration (IC50) in series [3] was determined as 41 nM. In series [4] (setting [5]), the inhibition at 100 µM came out at 31%.

Molecule `CS(=O)(=O)c1ccc(-c2cnn(Cc3ccccc3)c(=O)c2-c2ccc(Cl)c(Cl)c2)cc1` [Example 65, 2-Benzyl-4-(3,4-dichlorophenyl)-5-[4-(methylsulfonyl)phenyl]-3(2H)-pyridazinone] came in with a melting point of 161 to 163 °C. In series [1] (setting [6]), the inhibition at 0.1 µM came out at 65% and the inhibition at 1 µM was 98%. Further, in series [2], the inhibition at 100 µM stood at 13%. In series [3], the IC50 was 20 nM.

In the case of `CS(=O)(=O)c1ccc(-c2cnn(CC(F)(F)F)c(=O)c2SC2CCCCC2)cc1` [Example 287, 2-(2,2,2-Trifluoroethyl)-4-(cyclohexylthio)-5-[4-(methylsulfonyl)phenyl]-3(2H)-pyridazinone], the melting point is 165 to 167 °C. Further, in series [1] (setting [6]), the inhibition at 0.1 µM came out at 25% and the inhibition at 1 µM amounted to 79%. In addition, the inhibition at 10 µM in series [1] (10 μM, read-out: RHUCX2 % Inh. at Dose) amounted to 93%. Further, the inhibition at 100 µM in series [2] amounted to 0%. Moreover, the IC50 in series [3] was determined as 160 nM.

`CS(=O)(=O)c1ccc(-c2cnn(-c3cccc(Cl)c3)c(=O)c2Cc2cccc(F)c2)cc1` [Example 241, 2-(3-Chlorophenyl)-4-(3-fluorobenzyl)-5-[4-(methylsulfonyl)phenyl]-3(2H)-pridazinone] displayed a melting point of 142 to 143 °C. Further, in series [1], the IC50 came to 28 nM. For the same molecule, the inhibition at 100 µM in series [2] was 0%. The IC50 in series [3] was determined as 47.4 nM.

Consider `Cc1ccc(-c2c(-c3ccc(S(C)(=O)=O)cc3)cnn(Cc3ccccc3)c2=O)cc1C` [Example 325, 2-Benzyl-4-(3,4-dimethylphenl)-5-[4-(methylsulfonyl)phenyl]-3(2H)-pyridazinone], for which the IC50 is 199 nM in series [1], 40 nM in series [3] and 2300 nM in series [4].

`CN(C)c1cccc(Oc2c(-c3ccc(S(C)(=O)=O)cc3)cnn(-c3cccc(Cl)c3)c2=O)c1` [Example 344, 2-(3-Chlorophenyl)-4-[3-(dimethylamino)phenoxy]-5-[4-(methylsulfonyl)phenyl]-3(2H)-pyridazinone] returned a melting point of 191 to 193 °C. Moreover, in series [1], the IC50 turned out to be 897 nM. Further, the inhibition at 100 µM in series [2] turned out to be 16%. The IC50 in series [3] was found to be 100 nM.

`CS(=O)(=O)c1ccc(-c2cnn(-c3cccc(Cl)c3)c(=O)c2Oc2ccccc2)cc1` [Example 343, 2-(3-Chlorophenyl)-4-(phenoxy)-5-[4-(methylsulfonyl)phenyl]-3(2H)-pyridazinone] displayed a melting point of 205 to 207 °C. Besides, the IC50 in series [3] was 16 nM. The IC50 in series [4] was 191 nM.

The molecule `CC(C)CCc1c(-c2ccc(S(C)(=O)=O)c(F)c2)cnn(-c2ccc(F)c(Cl)c2)c1=O` [Example 252, 2-(3-Chloro-4-fluorophenyl)-4-(3-methylbutyl)-5-[3-fluoro-4-(methylsulfonyl)phenyl]-3(2H)-pyridazinone] returned a melting point of 102 to 104 °C. Further, the inhibition at 0.01 µM in series [1] (0.01 μM, read-out: RHUCX2 % Inh. at Dose) was determined as 26%. Moreover, in series [1] (setting [6]), the inhibition at 0.1 µM came out at 87%. In series [2], the inhibition at 100 µM was 0%. Also, the IC50 in series [3] turned out to be 44 nM.

`Cc1cc(-c2c(-c3ccc(S(C)(=O)=O)cc3)cnn(-c3cccc(Cl)c3)c2=O)ccc1F` [Example 244, 2-(3-Chlorophenyl)-4-(4-fluoro-3-methylphenyl)-5-[4-(methylsulfonyl)phenyl]-3(2H)-pyridazinone] came in with a melting point of 228 to 230 °C. For the same molecule, the IC50 in series [3] is 19 nM. Further, the IC50 in series [4] came to 3670 nM.

Regarding `CS(=O)(=O)c1ccc(-c2cnn(Cc3ccccc3)c(=O)c2-c2ccc(Cl)s2)cc1` [Example 320, 2-Benzyl-4-(5-chloro-2-thienyl)-5-[4-(methylsulfonyl)phenyl]-3(2H)-pyrdazinone], the “Wish % Inhib. at Dose (μM)” value in series [3] (0.01 μM) is given as 15 @ .01%; in series [3] (0.1 μM), 78 @ .1%. The “HWPX % Inhib. at Dose (μM)” value in series [4] (3 μM) is 29 @ 3%.

`CS(=O)(=O)c1ccc(-c2cnn(-c3cccc(Cl)c3)c(=O)c2Sc2ccccn2)cc1` [Example 358, 2-(3-Chlorophenyl)-4-(2-pyridylthio)-5-[4-(methylsulfonyl)phenyl]-3(2H)-pyridazinone] yielded a melting point of 110 to 114 °C. The IC50 in series [1] was 2450 nM. In addition, the inhibition at 100 µM in series [2] is 30%. Moreover, in series [3] (0.1 μM, read-out: Wish % Inhib. at Dose), the inhibition at 0.1 µM stood at 0%. The inhibition at 1 µM in series [3] (1 μM, read-out: Wish % Inhib. at Dose) is 69%.

Take `NS(=O)(=O)c1ccc(-c2cnn(CC=C(F)F)c(=O)c2-c2ccc(F)cc2)cc1F` [Example 408]: the melting point was 180 to 183 °C. Further, in series [1], the IC50 was 279 nM. For the same molecule, the inhibition at 100 µM in series [2] turned out to be 0%. The IC50 in series [3] is 29 nM.

`CCC(CC)COc1c(-c2ccc(S(C)(=O)=O)cc2)cnn(-c2ccc(F)cc2)c1=O` [Example 430, 2-(4-Fluorophenyl)-4-(2-ethyl-1-butoxy)-5-[4-(methylsulfonyl)phenyl]-3(2H)-pyridazinone] had a melting point of 107 to 108 °C. Besides, the IC50 in series [3] was 54 nM. Besides, in series [4] (setting [5]), the inhibition at 10 µM turned out to be 34% and the inhibition at 100 µM was found to be 89%.

Molecule `CC1(COc2c(-c3ccc(S(C)(=O)=O)cc3)cnn(CC(F)(F)F)c2=O)CC1` [Example 279] gave a melting point of 98 to 99 °C. In series [1] (setting [6]), the inhibition at 0.1 µM was found to be 31% and the inhibition at 1 µM stood at 60%. Also, in series [2], the inhibition at 100 µM amounted to 0%. The IC50 in series [3] stood at 391 nM.

In the case of `CC(c1ccc(F)c(F)c1)n1ncc(-c2ccc(S(N)(=O)=O)cc2)c(-c2ccc(F)cc2)c1=O` (stereo not drawn) [Example 148, 2-(α-Methyl-3,4-difluorobenzyl)-4-(4-fluorophenyl)-5-[4-(aminosulfonlI)phenyl]-3(2H)-pyridazinone], the melting point lay in the range of 214 to 215 °C. The IC50 in series [3] is 42 nM. In addition, the inhibition at 0.3 µM in series [4] (0.3 μM, read-out: HWPX % Inhib. at Dose) turned out to be 51%.
